As a reminder, the AC50 is the concentration giving half of the maximal activity seen. As usually defined, the CC50 is the concentration at which the toxic effect on the cells reaches its halfway point.

Among the data in ChEMBL document CHEMBL1201862, “PubChem BioAssay data set” (2004) are AC50, IC50 and CC50 values, retold here.

Structures are written as SMILES. Activity calls are given as the source filed them.

The target of one assay is Protein S100-A4 (Homo sapiens, UniProt P26447). Description: S100A4-myosin IIA binding inhibitor potency, dose response, biochemical, fluorescence polarization, cherry-picked hits (AID 687001). The class given is functional. On the technique in general: In fluorescence polarisation assays a small probe gives low polarisation when free and higher when bound to something large.

A further assay deals with Paired box protein Pax-8 (Homo sapiens, UniProt Q06710). In words: inhibitors of PAX8-driven TPO luciferase reporter, dose response, RMG-I cells, cherry-pick (AID 687027).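 Further: luciferase reporter driven by Pax8 target thyroperoxidase promoter measured by SteadyGlo luminescence.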 The class given is functional, cell-based. Background: A reporter such as luciferase makes a cellular process visible.
The nature of assay [1]: Luminescence-based cell-based high throughput dose response assay to identify activators of the DAF-12 from the parasite S. stercoralis (ssDAF-12). The class given is functional.
In another assay the target is T1, Cytochrome P450 1A2 (Homo sapiens, UniProt P05177).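 Further: PubChem cytochrome P450 panel assay, CYP1A2 panel member.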
T1 sequence (P05177 whole entry): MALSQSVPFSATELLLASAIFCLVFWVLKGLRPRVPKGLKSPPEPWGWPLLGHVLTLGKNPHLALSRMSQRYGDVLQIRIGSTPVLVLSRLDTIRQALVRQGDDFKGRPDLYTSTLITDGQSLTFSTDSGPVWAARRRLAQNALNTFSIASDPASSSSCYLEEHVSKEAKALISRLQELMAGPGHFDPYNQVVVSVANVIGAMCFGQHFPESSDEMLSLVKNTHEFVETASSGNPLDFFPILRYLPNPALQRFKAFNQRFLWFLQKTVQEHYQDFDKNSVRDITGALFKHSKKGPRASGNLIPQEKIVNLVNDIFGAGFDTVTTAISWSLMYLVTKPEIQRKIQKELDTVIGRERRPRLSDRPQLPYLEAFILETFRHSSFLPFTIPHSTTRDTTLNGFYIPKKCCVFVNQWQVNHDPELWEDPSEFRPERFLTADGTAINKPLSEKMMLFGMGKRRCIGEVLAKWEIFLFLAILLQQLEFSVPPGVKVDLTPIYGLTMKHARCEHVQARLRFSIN

The target of assay [2] is Beta-lactamase (Pseudomonas aeruginosa, UniProt Q79MP6).
In assay [3] the target is Beta-lactamase (Salmonella choleraesuis (strain SC-B67), UniProt Q5J463).
A short description of assay [4]: THP-1 cell cytotoxicity, dose response, cytotoxicity control for non-replicating M. tuberculosis project (AID 489025). The assay is classed as functional.
For assay [5], the target named is T2, Sentrin-specific protease 8 (Homo sapiens, UniProt Q96LD8).
T2 sequence (Q96LD8 whole entry): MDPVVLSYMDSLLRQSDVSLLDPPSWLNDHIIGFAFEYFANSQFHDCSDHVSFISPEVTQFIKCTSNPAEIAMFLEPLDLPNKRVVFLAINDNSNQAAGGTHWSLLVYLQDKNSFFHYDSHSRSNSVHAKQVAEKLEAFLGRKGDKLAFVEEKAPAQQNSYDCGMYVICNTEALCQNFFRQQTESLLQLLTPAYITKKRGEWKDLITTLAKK
The class given is functional.

Assay [6] addresses T2, Sentrin-specific protease 8. The assay is classed as functional. This is another data set of the same source.
In the next assay the target is T3, Caspase-3 (Homo sapiens, UniProt P42574).
T3 sequence (P42574 whole entry): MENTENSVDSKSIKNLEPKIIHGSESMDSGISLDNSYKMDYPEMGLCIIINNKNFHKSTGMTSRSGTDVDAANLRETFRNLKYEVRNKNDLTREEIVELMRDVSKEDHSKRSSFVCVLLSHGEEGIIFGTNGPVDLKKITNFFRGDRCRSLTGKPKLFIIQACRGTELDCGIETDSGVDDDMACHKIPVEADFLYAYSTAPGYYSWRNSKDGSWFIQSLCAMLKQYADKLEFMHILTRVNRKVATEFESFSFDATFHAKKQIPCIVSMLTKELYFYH
In words: Dose-response confirmation of uHTS inhibitor hits of Sentrin-Specific Protease 8 in a Caspase-3 Fluorescence assay. The class given is functional.

The test system of the next assay is HeLa. Description: HeLa cell cytotoxicity, dose response, cytotoxicity control, ATP luminescence, cherry-pick samples (AID 687004). The class given is functional, cell-based. The conditions noted are these: Homo sapiens.
Another assay relates to HEK293. Description: HEK293T cell cytotoxicity, dose response, cytotoxicity control, ATP luminescence, cherry-pick samples (AID 687005).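 Further: cells exposed to compound for 48 hours.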 To be noted: Homo sapiens. The class given is functional, cell-based.
Assay [7] is described as follows: HEK293 Cytotoxicity Assay Measured in Cell-Based System Using Plate Reader - 7071-01_Inhibitor_Dose_CherryPick_Activity_Set2. The class given is functional.
The subject of another assay is INS1. Description: beta cell apoptosis inhibitors, cytokine rescue, dose response, luminescence, retest (AID 449756).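 Further: cell death triggered by IL-1 beta plus TNF-alpha plus IFN-gamma mixture; protective hits raise ATP signal compared with cytokine alone wells.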 The conditions noted are these: Rattus norvegicus. The class given is functional, cell-based.
Assay [8] is described as follows: Shn3 3'UTR reporter inhibitors, dose response, cell-based, Clone20 osteoblasts, firefly luciferase, cherry-picked (AID 624132).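 Further: firefly luciferase luminescence from reporter carrying the Shn3 3'UTR in osteoblasts.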 The class given is functional.
A short description of assay [9]: HepG2 cell cytotoxicity, dose response, cytotoxicity control for Shn3 inhibitor project, CellTiter-Glo, cherry-picked (AID 624134). The assay is classed as functional, cell-based. For orientation: Cellular ATP, detected with luciferase, serves as a proxy for viable cell number.
Assay [10] is described as follows: control 3'UTR Renilla luciferase suppression, dose response, counter-screen for Shn3 inhibitor project, cell-based, Clone20-Shn3RL, cherry-picked (AID 624133). The assay is classed as functional.
The test system of a further assay is BHK-21. Description: BHK-21 cell toxicity, dose response, cytotoxicity control, plate reader, cherry-pick samples (AID 687030). The class given is functional, cell-based. To be noted: Mesocricetus auratus.
Another assay has as its system A549. In words: A549 cell toxicity, dose response, cytotoxicity control, plate reader, cherry-pick samples (AID 687028). The class given is functional, cell-based. To be noted: Homo sapiens.
The nature of a further assay: cells. The class given is functional.
In assay [11] the target is T4, Sentrin-specific protease 1 (Homo sapiens, UniProt Q9P0U3). In words: potency of human SENP1 inhibitors, dose response, biochemical, kinetic FRET (AID 651697). The conditions noted are these: read-out: IC50_Mean. The class given is functional.
Assay [12] deals with T4, Sentrin-specific protease 1. Description: Dose response confirmation of small molecule inhibitors of the catalytic domain of the SUMO protease, SENP1 in a FRET assay. The assay is classed as functional. The conditions noted are these: read-out: IC50_Mean.
Assay [13] can be described thus: Cytotoxicity screening for potential Inhibitors of Bacterial Capsule Biogenesis (4). The assay is classed as functional.

T4 sequence (Q9P0U3 whole entry, the tested form may be a part): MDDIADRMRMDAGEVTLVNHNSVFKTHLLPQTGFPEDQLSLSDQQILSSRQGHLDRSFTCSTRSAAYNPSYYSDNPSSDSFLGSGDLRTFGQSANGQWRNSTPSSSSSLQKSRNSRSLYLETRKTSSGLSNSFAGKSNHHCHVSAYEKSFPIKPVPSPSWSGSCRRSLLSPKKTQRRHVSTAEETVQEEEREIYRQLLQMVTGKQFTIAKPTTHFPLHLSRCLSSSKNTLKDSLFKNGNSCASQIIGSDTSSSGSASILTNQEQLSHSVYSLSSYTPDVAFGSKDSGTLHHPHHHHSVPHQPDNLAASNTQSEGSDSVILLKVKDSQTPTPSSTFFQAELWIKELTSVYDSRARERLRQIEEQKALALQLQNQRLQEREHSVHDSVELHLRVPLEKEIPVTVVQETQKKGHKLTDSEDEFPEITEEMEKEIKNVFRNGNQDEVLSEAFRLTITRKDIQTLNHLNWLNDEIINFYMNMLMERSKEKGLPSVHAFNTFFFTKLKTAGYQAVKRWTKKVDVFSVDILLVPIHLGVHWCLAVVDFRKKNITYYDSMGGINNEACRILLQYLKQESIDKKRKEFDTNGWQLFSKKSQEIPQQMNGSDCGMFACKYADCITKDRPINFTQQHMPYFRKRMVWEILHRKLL
Sequence of Protein S100-A4 (P26447 whole entry): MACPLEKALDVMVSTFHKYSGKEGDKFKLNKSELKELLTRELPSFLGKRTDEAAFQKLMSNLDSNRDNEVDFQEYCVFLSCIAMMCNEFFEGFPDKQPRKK
Sequence of Beta-lactamase (Salmonella choleraesuis (strain SC-B67), UniProt Q5J463) (Q5J463 whole entry): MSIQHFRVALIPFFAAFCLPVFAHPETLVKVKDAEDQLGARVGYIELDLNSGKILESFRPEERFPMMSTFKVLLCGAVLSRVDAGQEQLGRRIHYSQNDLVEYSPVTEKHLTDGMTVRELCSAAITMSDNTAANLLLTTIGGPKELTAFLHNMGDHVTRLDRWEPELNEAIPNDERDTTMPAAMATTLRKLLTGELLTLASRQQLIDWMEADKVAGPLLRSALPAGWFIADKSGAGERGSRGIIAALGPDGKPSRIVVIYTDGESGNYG
Sequence of Paired box protein Pax-8 (Q06710 whole entry): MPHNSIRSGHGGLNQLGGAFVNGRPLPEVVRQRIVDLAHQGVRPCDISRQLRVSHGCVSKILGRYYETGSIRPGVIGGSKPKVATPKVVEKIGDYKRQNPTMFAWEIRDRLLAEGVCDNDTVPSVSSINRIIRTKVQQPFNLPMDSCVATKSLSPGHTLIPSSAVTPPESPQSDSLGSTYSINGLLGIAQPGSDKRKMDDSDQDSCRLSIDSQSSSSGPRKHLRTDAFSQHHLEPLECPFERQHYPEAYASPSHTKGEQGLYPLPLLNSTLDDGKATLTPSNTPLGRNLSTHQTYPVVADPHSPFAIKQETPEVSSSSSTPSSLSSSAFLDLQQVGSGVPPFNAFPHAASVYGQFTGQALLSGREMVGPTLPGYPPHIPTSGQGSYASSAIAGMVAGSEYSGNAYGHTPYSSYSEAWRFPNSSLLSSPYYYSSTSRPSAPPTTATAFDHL
Sequence of Beta-lactamase (Pseudomonas aeruginosa, UniProt Q79MP6) (Q79MP6 whole entry): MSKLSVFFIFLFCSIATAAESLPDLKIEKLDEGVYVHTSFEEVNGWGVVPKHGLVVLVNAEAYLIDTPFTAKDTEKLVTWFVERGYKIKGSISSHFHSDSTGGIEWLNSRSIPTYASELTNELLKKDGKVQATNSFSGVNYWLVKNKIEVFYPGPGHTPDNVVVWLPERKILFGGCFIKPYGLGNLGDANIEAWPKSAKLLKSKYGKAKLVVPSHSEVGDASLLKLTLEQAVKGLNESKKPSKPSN

Regarding `CC(=O)[C@@]1(O)Cc2c(O)c3c(c(O)c2[C@H](O[C@H]2C[C@H](N)[C@H](O)[C@H](C)O2)C1)C(=O)c1ccccc1C3=O`, the AC50 on Protein S100-A4 was 412 nM (active); on Paired box protein Pax-8, 3.77 µM (active); on Cytochrome P450 1A2 it was 20 µM (inconclusive). In assay [1], the IC50 was > 67.5 µM (inactive).
With `N=C1/C(=C\c2coc3ccccc3c2=O)C(=O)N=C2SC=CN12`, the values for the IC50 on Beta-lactamase [2] and at Beta-lactamase [3] were 36.4 µM (inactive) and > 59.6 µM (inactive), respectively. Besides, in [4], the CC50 was > 40 µM (active).
On to `COc1ccc(NC(=O)[C@@H]2[C@@H]3C(=O)N(C4CCCCC4)C(=O)[C@@H]3C3c4ccccc4C=CN32)cc1` (stereo partly drawn), for which the IC50 in assay [5] is 16.3 µM (active); in assay [6] it was 4.79 µM (active); at Caspase-3, 10.8 µM (active).
For `O=S(=O)(c1ccc(F)cc1)N1C[C@@H]2[C@H](c3ccccc31)[C@@H](CO)N2Cc1ccccc1Cl`, the AC50 was > 47 µM (inactive) with HeLa, 18.9 µM (active) with HEK293 and 18.9 µM (active) in [7].
As for `CC(=O)NC(c1cc(Cl)c2cccnc2c1O)C(C)C` (stereo not drawn), the AC50 with INS1 was 1.76 µM (active); in [8] it was 2.96 µM (active); in assay [9], 5.13 µM (active); in assay [10], 2.71 µM (active); in the assay with BHK-21, 21.6 µM (active); with A549, 23.5 µM (active).
Consider `O=C(Nc1nccs1)c1cc2cc(Cl)ccc2oc1=O`, for which the IC50 was 1.37 µM (active) in the assay “cells”, 1.84 µM (active) in assay [11] and 3.49 µM (active) in assay [12].
For `CC(C)(C)OC(=O)Nc1nc2ccc(C(=O)Nc3ccnc(Br)c3)cc2s1`, the CC50 in assay [13] is > 300 µM (inactive).
